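Five compound concentrations were applied to cells in 96-well plates for 48 hours; endpoints were derived by simple linear interpolation of the resulting dose-response curve. TGI: concentration producing complete growth inhibition.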
Columns and labels:
Experiment in all cases: NCI tumour cell line growth inhibition, 48 h
[1] = tested on: UACC-257 melanoma
[2] = tested on: SK-OV-3 ovarian
[3] = tested on: SN12C renal
[4] = tested on: RXF-631 renal
[5] = tested on: HT29 colon
[6] = tested on: UO-31 renal
[7] = tested on: SF-295 CNS
[8] = tested on: OVCAR-5 ovarian
[9] = tested on: ACHN renal
[10] = tested on: U251 CNS
[11] = tested on: SNB-19 CNS
[12] = tested on: HOP-62 NSCLC
[13] = tested on: UACC-62 melanoma
[14] = tested on: SNB-78 CNS
[15] = tested on: RXF 393 renal
[16] = tested on: HOP-18 NSCLC
[17] = tested on: HCT-15 colon
[18] = tested on: HCT-116 colon
[19] = tested on: M19-MEL melanoma
[20] = tested on: KM20L2 colon
[21] = tested on: A549 NSCLC
[22] = tested on: NCI-H522 lung
[23] = tested on: HOP-92 NSCLC
[24] = tested on: A498 renal
[25] = tested on: DMS 273 small cell lung
[26] = tested on: IGROV1 ovarian
[27] = tested on: SK-MEL-5 melanoma
[28] = tested on: KM12 colon
[29] = tested on: SF-539 CNS
[30] = tested on: OVCAR-4 ovarian
[31] = tested on: DLD-1 colon
[32] = tested on: CCRF-CEM leukemia
[33] = tested on: K-562 leukemia
[34] = tested on: XF 498 CNS
[35] = tested on: MALME-3M melanoma
[36] = tested on: OVCAR-3 ovarian
[37] = tested on: COLO 205 colon
[38] = tested on: DMS 114 small cell lung
[39] = tested on: NCI-H23 lung
[40] = tested on: NCI-H460 lung
[41] = tested on: SW-620 colon
[42] = tested on: SF-268 CNS
[43] = tested on: LOX IMVI melanoma
[44] = tested on: CAKI-1 renal
[45] = tested on: RPMI-8226 leukemia
[46] = tested on: NCI-H226 lung
[47] = tested on: M14 melanoma
[48] = tested on: HL-60(TB) leukemia
[49] = tested on: TK-10 renal
[50] = tested on: SK-MEL-28 melanoma
[51] = tested on: SK-MEL-2 melanoma
[52] = tested on: LXFL 529 NSCLC
[53] = tested on: EKVX NSCLC
[54] = tested on: MOLT-4 leukemia
[55] = tested on: HCC-2998 colon
[56] = tested on: 786-0 renal
[57] = tested on: OVCAR-8 ovarian
[58] = tested on: SNB-75 CNS

Cc1cc(C)nc(NS(=O)(=O)c2ccc(NC(=O)c3cccc4c(Nc5ccc(S(N)(=O)=O)cc5)c5ccccc5nc34)cc2)n1 gave a TGI [1] of 72.4 µM, a TGI [2] of 28.4 µM and a TGI [3] greater than 82.6 µM. It also gave a TGI [4] greater than 100 µM, a TGI [5] of 97.1 µM and a TGI [6] greater than 100 µM. It also gave a TGI [7] greater than 100 µM, a TGI [8] greater than 100 µM and a TGI [9] greater than 100 µM. For the same molecule, the TGI [10] was greater than 71.2 µM, the TGI [11] was greater than 100 µM and the TGI [12] was 98.8 µM. The TGI [13] was greater than 100 µM, the TGI [14] was 52.3 µM and the TGI [15] was greater than 81.8 µM. It also gave a TGI [16] greater than 100 µM, a TGI [17] greater than 100 µM and a TGI [18] of 21.7 µM. It also gave a TGI [19] of 46.5 µM, a TGI [20] greater than 100 µM and a TGI [21] greater than 100 µM. For the same molecule, the TGI [22] was 38.7 µM, the TGI [23] was 61.1 µM and the TGI [24] was greater than 100 µM. It also gave a TGI [25] greater than 100 µM, a TGI [26] of 28.4 µM and a TGI [27] greater than 95.9 µM. The TGI [28] was 47.3 µM, the TGI [29] was 20.5 µM and the TGI [30] was greater than 85.5 µM. It also gave a TGI [31] greater than 100 µM, a TGI [32] greater than 25.1 µM and a TGI [33] greater than 67.6 µM. The TGI [34] was 88.2 µM, the TGI [35] was 55.5 µM and the TGI [36] was 27.6 µM. The TGI [37] was greater than 62.5 µM, the TGI [38] was 42.6 µM and the TGI [39] was greater than 100 µM. The TGI [40] was greater than 100 µM, the TGI [41] was greater than 100 µM and the TGI [42] was greater than 67.4 µM. It also gave a TGI [43] of 99.8 µM, a TGI [44] greater than 100 µM and a TGI [45] greater than 100 µM. It also gave a TGI [46] greater than 100 µM, a TGI [47] greater than 100 µM and a TGI [48] of 29.6 µM. The TGI [49] was greater than 100 µM, the TGI [50] was greater than 29.3 µM and the TGI [51] was greater than 31.1 µM. It also gave a TGI [52] greater than 100 µM, a TGI [53] greater than 100 µM and a TGI [54] of 29.3 µM. For the same molecule, the TGI [55] was 36.1 µM, the TGI [56] was greater than 100 µM and the TGI [57] was greater than 100 µM. For the same molecule, the TGI [58] was greater than 100 µM.

— PubChem BioAssay (NCI)
